Assay [1] has as its target T1, Cx43 hemichannels (Homo sapiens, UniProt P17302).
T1 construct: endogenous in cells; host or cells: TICAE and TIME cells (human endothelial cell lines)
Put plainly: Extracellular ATP release after irradiation, TICAE cells. It is filed as cell-based. The method, then:
Hemichannels are an ATP release pathway and we therefore determined extracellular ATP after irradiation. To that purpose, TICAE and TIME cells were seeded in a 96-well plate at a density of 1×10^5 cells/well and 0.3×10^5 cells/well, respectively, in six to eight biological replicates. Three days later, cells reached 100% confluence. At 30 minutes before irradiation, cells were refreshed with 100 μl medium alone or with medium supplemented with 100 μM TAT-Gap19 (Genosphere Biotechnologies, Paris, France) to block the Cx43 hemichannels. For fractionated irradiation, cells were refreshed with 150 μl medium/well. At different time points after irradiation (1, 6 and 72 h), 1:5 ATP assay mix dissolved in ATP mix dilution buffer (Sigma-Aldrich Co. LCC, Diegem, Belgium) was added to each well. Extracellular ATP release was assessed by measuring the luminescence signal received after oxidation of luciferin and ATP to oxyluciferin and AMP using the CLARIOstar® microplate reader (BMG Labtech, Temse, Belgium). Experiments were corrected for baseline ATP signal in medium in the absence or presence of TAT-Gap19.

In assay [2] the test system is TIME cells. Put plainly: Cell death, Annexin V and Caspase 3/7 live cell imaging, TIME cells. It is filed as cell-based, human. Here is the method: TICAE and TIME cells were seeded in 96 well plates at a density of 10000 cells/well in 8 biological replicates. After three days, cells were at 100% confluence. At 30 minutes before X-ray exposure, cells were refreshed with 200 μl medium supplemented with Caspase 3/7 reagent (1:1000 dilution) and Annexin V reagent (1:200 dilution) (Essen Bioscience, United Kingdom) with or without 100 μM TAT-Gap19 (Genosphere Biotechnologies, Paris, France). Fluorescence signals were measured from 4 h until 100 h after irradiation by imaging every 2 hours using the IncuCyte ZOOM® system (Essen BioScience, Ann Arbor, Mich., USA). Different channels (TRITC, FITC and phase contrast) and a 10× objective were used. Spectral unmixing set as 8% of red removed from green was applied. The IncuCyte software's processing definition was set to recognize red (Annexin V) and green (Caspase 3/7) stained cells, making use of the Top-Hat background subtraction method. Fluorescence signal was normalized to cell count.

In assay [3] the test system is TICAE cells. The assay can be described thus: Senescence-associated β-galactosidase CPRG assay, TICAE cells. The assay is classed as cell-based, human. Here is the method:
TICAE and TIME cells were seeded in 96 well plates at a density of 10000 cells/well in 16 replicates. Three days after, cells were at 100% confluent. At 30 minutes before X-ray exposure, the cells were refreshed with 150 μl medium alone or with medium supplemented with 100 μM TAT-Gap19 (Genosphere Biotechnologies, Paris, France). For 7 d and 9 d post irradiation experiments, the medium was refreshed once, while for 14 d post irradiation experiment the medium was refreshed twice with 200 μl medium alone or with medium supplemented with 100 μM TAT-Gap19. At 7, 9 and 14 days post irradiation, cell number was determined using an Incucyte® ZOOM life cell analysis system and related software (Essen Bioscience, Hertfordshire, United Kingdom). Afterwards, the senescence associated β-galactosidase activity in the cells was determined using the chlorophenol red β-D-galactopyranoside (CPRG) assay as described previously. The cells were washed with PBS and lysed using M-PER™ buffer (Thermo Fisher Scientific, Asse, Belgium). Subsequently, 1×CPRG substrate (2 mM Chloropenol Red β-D-galactopyranoside in CPRG assay buffer containing 50 mM KPO4, 1 mM MgCl2, pH 6) (Sigma-Aldrich, Overijse, Belgium) was added to each well and the plates incubated for 18 h at 37° C. without CO2. A CLARIOstar® microplate reader (BMG Labtech, Temse, Belgium) was used to measure the absorbance at 570 nm.

Assay [4] concerns TICAE cells. The assay can be described thus: DNA damage, gamma H2AX and TP53BP1 foci, TICAE cells. The assay is classed as cell-based, human. As to conditions: 100 μM TAT-Gap19, 0.1 and 5 Gy, 1 h p.i. The method, then:
To detect DNA double strand breaks after IR, TICAE and TIME cells were seeded in Nunc™ Lab-Tek™ Chamber Slide (Thermo Fisher Scientific, Asse, Belgium) in 8 replicates, at seeding density of 50 000 cells/well. Two days later, cells reached 100% confluence. At 30 min before IR, a fresh medium was added to the cells with or without 100 μM TAT-Gap19. At 1 h post irradiation, cells were fixed with 2% PFA (Sigma-Aldrich Co. LCC, Diegem, Belgium) and permeabilized with 0.25% Triton X-100 (Sigma-Aldrich Co. LCC, Diegem, Belgium) in PBS. Cells were blocked for 1 h in 1% normal goat serum (Thermo Fisher Scientific, Asse, Belgium) in Tris-NaCl (Perkin Elmer, Brussels, Belgium). Thereafter, staining with 1/300 primary anti-gamma H2AX antibody (Merck-Millipore #05-636) and 1/1000 anti-TP53BP1 antibody (Novus Biologicals #NB100-304) was performed for 1 h at 37° C. After washing 3 times with PBS, secondary Alexa Fluor 488 and 568 antibodies (Life Technologies, Merelbeke, Belgium) were applied for 1 h at 37° C. Finally, the slides were mounted using ProLong Diamond Antifade Mountant with DAPI (Life Technologies, Merelbeke, Belgium), and cells were visualized with an Eclipse Ti automated inverted wide-field epifluorescence microscope (Nikon, Brussels, Belgium) equipped with a 20×Plan Fluor objective (NA 0.6) and an Andor Ixon EMCCD camera, controlled by the MS Elements software. […]

The test system of assay [5] is RBE4 cells. The assay can be described thus: Irradiation-induced ATP release, RBE4 cells. It is filed as cell-based, rat. As to conditions: broad-beam 1 Gy, 5 min post-irradiation, BAPTA-AM 10 μM, NALC 1 mM, c-PTIO 100 μM. Here is the method:
ATP was measured using a luciferin-luciferase assay kit (Sigma-Aldrich) in combination with a luminometer plate reader (Victor3 1420 multi label counter; Perkin Elmer, Zaventem, Belgium).
Extracellular ATP measurements were initially carried out at different time-points post-irradiation, the effect of blockers on ATP release was tested at the 5 min post-irradiation time-point (time of maximum ATP release).

T1 sequence (P17302 whole entry): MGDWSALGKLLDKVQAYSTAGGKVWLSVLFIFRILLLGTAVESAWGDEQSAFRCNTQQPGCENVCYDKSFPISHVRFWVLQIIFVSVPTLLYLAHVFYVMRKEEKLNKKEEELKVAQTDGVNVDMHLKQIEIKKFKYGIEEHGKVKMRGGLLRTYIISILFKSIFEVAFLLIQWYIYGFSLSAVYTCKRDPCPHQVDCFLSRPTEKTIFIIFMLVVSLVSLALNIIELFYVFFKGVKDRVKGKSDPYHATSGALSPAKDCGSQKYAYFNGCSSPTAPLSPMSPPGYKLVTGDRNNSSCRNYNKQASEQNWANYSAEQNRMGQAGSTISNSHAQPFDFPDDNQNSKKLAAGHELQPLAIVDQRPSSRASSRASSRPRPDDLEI

As for “TAT-Gap19: connexin mimetic peptide, amino-acids 128-136 of the CL of Cx43 (SEQ ID NO: 2), Gap19 linked to TAT sequence; Cx43 hemichannel inhibitor (YGRKKRRQRRRKQIEIKKFK)”, the “radiation-induced ATP release” value is “significantly inhibited the 5 Gy responses only” in assay [1] (100 μM TAT-Gap19, fractionated irradiation 0.1 and 5 Gy, 72 h p.i.); “no inhibition was observed” in assay [1] (100 μM TAT-Gap19, single 0.1 and 5 Gy, 1 h p.i.); “significantly reduced the ATP release” in assay [1] (100 μM TAT-Gap19, single 5 Gy, all cases except 1 h p.i. (6 h, 72 h)). For the same substance, in assay [2] (100 μM TAT-Gap19, 0 Gy, 12-24 h p.i. time window), the “Annexin V” value is listed as “transiently reduced Annexin V”. Moreover, the “Annexin V elevation” value in assay [2] (100 μM TAT-Gap19, 5 Gy, 4-48 h p.i. time window) was “significantly reduced Annexin V elevation”. The “SA β-gal activity” value in assay [3] (100 μM TAT-Gap19, 0 Gy and 5 Gy, 9 d p.i.) was “significantly reduced SA β-gal activity”; in assay [3] (100 μM TAT-Gap19, control, 0.1 Gy and 5 Gy, 7 d p.i.), “significantly reduced SA β-gal activity”. In addition, in assay [3] (100 μM TAT-Gap19, 0.1 Gy and 5 Gy, 14 d p.i.), the “SA β-gal activity (radiation responses)” value is reported as “significantly inhibited these responses”. In addition, the “gamma H2AX, TP53BP1 and colocalized foci (radiation-induced DNA damage)” value in assay [4] was “not affected”. Moreover, the “irradiation-induced ATP release” value in assay [5] was “inhibited”.
